Laboratory results reported in US6960430B2, “Screening methods for compounds useful in the regulation of cell proliferation” (priority 1999, dated 2005).
“Also recorded” adds a separate entry of the source.

Columns and labels:
[1] = test system: tetracycline-regulated transactivator protein tTA; assay: Hsp72 expression from adenovirus vector controlled by tetracycline-regulated transactivator in Rat-1 cells, immunoblot; type: cell-based; conditions: 20 nM
From the text: Recombinant adenovirus vector expressing Hsp72 (ADTR5Hsp72-GFP, curtesy of Dr. Mosser, Biotechnology Research Institute, Montreal) was constructed by cloning a dicistronic transcription unit encoding Hsp72 and Aequorea Victoria green fluorescent protein gene, separated by the encephalomyocarditis virus internal ribosome entry site from pTR-DC/Hsp70-GFP (Mosser et al., 1997a, Mol. Cell Biol, 17: 5317-5327; Mosser et al., 1997b, Biotechniques 22: 150-161) into an adenovirus transfer vector. Expression of this transcription unit is controlled by the tetracycline-regulated transactivator protein tTA (Mosser et al., 1997b, Biotechniques 22: 150-161) which we expressed from a separate recombinant adenovirus. Recombinant adenoviruses were generated by standard techniques as detailed by (Jani et al., 1997, J. Virol. Methods 64: 111-124). Viruses were used at stock concentration of 10^10 pfu/ml. […] Two-ml cell cultures grown in liquid medium in 35 mm dishes were infected in the presence or the absence of anhydrotetracycline with 3·10^7 pfu of each virus, sufficient for infection of almost 100% cells, and additional 10^7 pfu of each virus was added on days three and seven. After 24 hours incubation with viruses, cells were washed with PBS and placed in fresh media with or without anhydrotetracycline. […]

JNK phosphatase(s) [2] = assay: JNK inactivation (dephosphorylation) after heat shock in Hsp72-expressing MVH cells, immunoblot with antibody to phospho-JNK; type: cell-based, rat; conditions: for JNK inactivation / JNK dephosphorylation in heat-shocked MVH cells: 0.5 mM added 1 hr after heat shock (45° C., 50 min), recovery at 37° C., JNK1 by phospho-JNK antibody; for JNK activity, drug alone: unstressed cells, vanadate alone
From the text: Another assay for JNK activity allowed us to measure separately activity of two major isoforms (46 kDa JNK1 and 54 kDa JNK2) using JNK antibody specific to activated (phosphorylated) form of JNK (Promega, Wis.). For immunoblot analysis samples were subjected to Western immunoblotting. Secondary antibodies conjugated with peroxidase were visualized with ECL substrates (Amersham, Arlington Heights, Ill.) and resulting films were quantified by densitometry. Measurement of JNK phosphatase activity. In vivo INK phosphatase activity was measured as described earlier (Meriin, A. B., et al., 1999, Mol. Cell Biol. (In press)). […] […] The rate of JNK dephosphorylation was assessed under these conditions by immunoblotting with antibody which recognizes the activated (phosphorylated) form of JNK specifically.

JNK phosphatase(s) [3] = conditions: various cell lines; cited from earlier work
MVH cells = assay: Apoptosis by Hoechst-33342 staining in MVH cells (Rat-1 variant constitutively expressing Hsp72); type: cell-based; conditions: heat shock 45° C., 50 min, 0.5 mM, apoptosis assessed 7 hr after treatment
Method: The level of apoptosis was measured by fluorescent microscopy using Hoechst-33342 DNA-specific dye (10 μM). Shrinked cells with condensed or fragmented nuclei were counted as apoptotic. Cells were washed twice with PBS on a dish, aspirated and lysed by thoroughly scraping with a plastic scraper in 200 μL lysis buffer per a 35 mm dish (40 mM HEPES, pH 7.5; 50 mM KCl; […]; 2 mM DTT, 1 mM Na3VO4; 50 mM β-glycerophosphate; 50 mM NaF; 5 mM EDTA; 5 mM EGTA; 1 mM PMSF; 1 mM benzamedine; 5 μg/ml of each: leupeptine, pepstatine A, aprotenin). The lysates were clarified by centrifugation in a microcentrifuge at 15,000 rpm for 5 min. Total protein concentration was measured in the supernatants after which they were diluted with the lysis buffer to achieve equivalent concentration in all samples. All procedures were performed at 4° C.

Row | SMILES | Hsp72 expression after infection with both adenoviruses [1] | JNK inactivation / JNK dephosphorylation in heat-shocked MVH cells (JNK phosphatase(s) [2]) | JNK inactivation / JNK dephosphorylation in heat-shocked MVH cells (JNK phosphatase(s) [2]; listed as Ortho-vanadate) | JNK activity, drug alone (JNK phosphatase(s) [2]; listed as Ortho-vanadate) | JNK activity, drug alone (JNK phosphatase(s) [2]; listed as vanadate) | suppression of JNK phosphatase(s) (JNK phosphatase(s) [3]) | heat-induced apoptosis of MVH cells (thermoresistance, anti-apoptotic effect of Hsp72) (MVH cells; listed as Ortho-vanadate) | heat-induced apoptosis of MVH cells (thermoresistance, anti-apoptotic effect of Hsp72) (MVH cells; listed as vanadate)
1 | Cc1c2c(c(O)c3c(O)cccc13)C(=O)[C@]1(O)C(=O)C(C(N)=O)=C(O)[C@@H](N(C)C)[C@@H]1C2 [anhydrotetracycline] | expression of Hsp72 in the absence of tetracycline but not in the presence of 20 nM of anhydrotetracycline | – | – | – | – | – | – | –
2 | [O]=[V]([O-])([O-])[O-] [ortho-vanadate] | – | strongly inhibited JNK inactivation | inhibits JNK dephosphorylation | no significant effect on JNK activity | affected neither JNK activity | effectively suppresses JNK phosphatase(s) | abolishes thermoresistance | completely reversed anti-apoptotic effect of Hsp72; also recorded: dramatically increased
